Each molecule was assayed against D(2) dopamine receptor (Rattus norvegicus, UniProt P61169) (assay: Inhibition of [3H](-)-sulpiride binding to rat striatum dopamine receptor D2).
Type: tissue-based

Sequence of D(2) dopamine receptor (P61169 whole entry): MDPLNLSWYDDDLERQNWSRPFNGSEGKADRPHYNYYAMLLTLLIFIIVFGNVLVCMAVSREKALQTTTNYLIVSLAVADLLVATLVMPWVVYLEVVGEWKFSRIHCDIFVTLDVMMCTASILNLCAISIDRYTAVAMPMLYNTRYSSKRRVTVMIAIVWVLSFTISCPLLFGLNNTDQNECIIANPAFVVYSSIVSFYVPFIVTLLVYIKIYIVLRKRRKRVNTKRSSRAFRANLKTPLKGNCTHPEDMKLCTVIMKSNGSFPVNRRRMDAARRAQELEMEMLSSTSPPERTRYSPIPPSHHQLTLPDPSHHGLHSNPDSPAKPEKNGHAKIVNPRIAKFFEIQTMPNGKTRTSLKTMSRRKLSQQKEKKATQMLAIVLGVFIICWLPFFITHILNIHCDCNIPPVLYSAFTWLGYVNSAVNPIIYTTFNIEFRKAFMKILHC

Question: `COc1ccc(CN2CC[C@H]3c4ccccc4CC[C@H]3C2)cc1` was tested. Which IC50 did it give?
Answer: The IC50 was 35.5 nM.

Question: Which IC50 does the source give for `CCCCN1CC[C@H]2c3ccccc3CC[C@H]2C1` here?
Answer: Its IC50 is 145 nM.

Question: How did the IC50 turn out when `CC(C)(C)c1ccc(CN2CC[C@H]3c4ccccc4CC[C@H]3C2)cc1` was run?
Answer: The IC50 was 288 nM.

Question: For `CCCCN1CCC2=C(CCCc3ccccc32)C1`, which IC50 is on record?
Answer: Its IC50 is 61.7 nM.

Question: How did the IC50 turn out when `CCCCN1CCC2c3ccccc3CCCC2C1` (configuration not stated) was run?
Answer: The IC50 was 166 nM.

Question: How did the IC50 turn out when `c1ccc2c(c1)CC[C@H]1CN(C34C[C@H]5C[C@@H](C3)C[C@@H](C4)C5)CC[C@@H]21` was run?
Answer: Its IC50 is > 10000 nM.

Question: `CCCCN1CC[C@@H]2c3ccccc3CC[C@H]2C1` was tested. Which IC50 did it give?
Answer: Its IC50 is 389 nM.

Question: How did the IC50 turn out when `CCCCN1CCC2=C(Cc3ccccc32)C1` was run?
Answer: Its IC50 is 60.3 nM.

Question: For `CCCCN1CCC2=C(CCc3ccccc32)C1`, which IC50 is on record?
Answer: The IC50 was 63.1 nM.

Question: For `c1ccc(CCN2CC[C@H]3c4ccccc4CC[C@H]3C2)cc1`, which IC50 is on record?
Answer: The IC50 was 162 nM.

Question: With `c1ccc2c(c1)CC[C@H]1CN(C3CCCCC3)CC[C@@H]21` as the molecule, how does the IC50 read?
Answer: Its IC50 is 2690 nM.

Question: `O=[N+]([O-])c1ccc(CCN2CC[C@H]3c4ccccc4CC[C@H]3C2)cc1` was tested. Which IC50 did it give?
Answer: The IC50 was 589 nM.

— ChEMBL document CHEMBL1126294, “Benz[f]isoquinoline analogues as high-affinity sigma ligands” (J Med Chem, 1992)
